Test results as given in the NIST ThermoML archive (doi:10.1021/acs.jced.7b00543).
± gives the expanded uncertainty stated by the source.

Conditions: Capillary rise

C=C(F)C(F)(F)F [2,3,3,3-tetrafluoro-1-propene]
Conditions	surface tension liquid-gas [mN/m]
242.21 K	13.25 ± 0.21
244.21 K	12.98 ± 0.21
245.22 K	12.84 ± 0.21
248.08 K	12.45 ± 0.21
250.1 K	12.18 ± 0.21
252.25 K	11.9 ± 0.21
255.34 K	11.49 ± 0.21
258.24 K	11.11 ± 0.21
260.34 K	10.83 ± 0.2
263.12 K	10.47 ± 0.2
265.13 K	10.21 ± 0.2
268.11 K	9.828 ± 0.2
270.15 K	9.568 ± 0.2
275.55 K	8.889 ± 0.2
278.58 K	8.512 ± 0.2
280.24 K	8.307 ± 0.2
283.24 K	7.94 ± 0.2
285.32 K	7.688 ± 0.2
288 K	7.364 ± 0.2
290.08 K	7.117 ± 0.2
296.04 K	6.415 ± 0.2
300.01 K	5.956 ± 0.2
305.09 K	5.382 ± 0.2
310.09 K	4.829 ± 0.2
312.28 K	4.591 ± 0.2
315.2 K	4.279 ± 0.2
317.48 K	4.038 ± 0.2
320.48 K	3.726 ± 0.2
322.47 K	3.523 ± 0.2
325.1 K	3.259 ± 0.2
327.3 K	3.041 ± 0.2
330.27 K	2.752 ± 0.2
332.21 K	2.568 ± 0.2
335.26 K	2.284 ± 0.2
337.53 K	2.077 ± 0.2
340.11 K	1.85 ± 0.2
342.54 K	1.64 ± 0.2
345.13 K	1.425 ± 0.2
347.36 K	1.244 ± 0.2
350.21 K	1.023 ± 0.2
355.63 K	0.637 ± 0.2
360.23 K	0.349
362.34 K	0.234
365 K	0.108

CC(C)C [2-methylpropane]
Conditions	surface tension liquid-gas [mN/m]
280.34 K	11.99 ± 0.21
283.22 K	11.79 ± 0.21
285.45 K	11.48 ± 0.21
288.02 K	11.17 ± 0.21
290.14 K	10.99 ± 0.2
293.53 K	10.6 ± 0.2
296.42 K	10.23 ± 0.2
299.37 K	9.829 ± 0.2
302.08 K	9.595 ± 0.2
305.41 K	9.223 ± 0.2
307.43 K	9.03 ± 0.2
310.75 K	8.607 ± 0.2
313.15 K	8.314 ± 0.2
315.62 K	7.999 ± 0.2
318.22 K	7.683 ± 0.2
320.46 K	7.584 ± 0.2
323.41 K	7.172 ± 0.2
325.44 K	7.013 ± 0.2
327.83 K	6.731 ± 0.2
329.85 K	6.538 ± 0.2
330.18 K	6.476 ± 0.2
332.56 K	6.214 ± 0.2
335.58 K	5.925 ± 0.2
338.1 K	5.686 ± 0.2
340.42 K	5.479 ± 0.2
342.74 K	5.22 ± 0.2
345.39 K	4.972 ± 0.2
347.26 K	4.847 ± 0.2
350.12 K	4.526 ± 0.2

F/C=C/C(F)(F)F [trans-1,3,3,3-tetrafluoropropene]
Conditions	surface tension liquid-gas [mN/m]
242.01 K	15.66 ± 0.21
245.14 K	15.23 ± 0.21
248.08 K	14.82 ± 0.21
250.11 K	14.54 ± 0.21
255.11 K	13.85 ± 0.21
260.07 K	13.18 ± 0.21
265.12 K	12.51 ± 0.21
268.98 K	12 ± 0.21
271.51 K	11.67 ± 0.21
275.65 K	11.13 ± 0.21
280.14 K	10.55 ± 0.2
285.03 K	9.923 ± 0.2
288.19 K	9.525 ± 0.2
290.19 K	9.275 ± 0.2
293.1 K	8.913 ± 0.2
295.07 K	8.67 ± 0.2
300.07 K	8.059 ± 0.2
305.06 K	7.46 ± 0.2
310.06 K	6.873 ± 0.2
315.05 K	6.304 ± 0.2
320.05 K	5.724 ± 0.2
325.03 K	5.171 ± 0.2
330.05 K	4.621 ± 0.2
335.09 K	4.087 ± 0.2
340.08 K	3.565 ± 0.2
345.07 K	3.094 ± 0.2
350.07 K	2.589 ± 0.2
355.03 K	2.132 ± 0.2
360.08 K	1.605 ± 0.2
365.09 K	1.171 ± 0.2
370.07 K	0.761 ± 0.2
375.14 K	0.395
380.09 K	0.109
